Results from the NIST ThermoML archive (doi:10.1016/j.jct.2004.09.021).

Assays:
[1] = refractive index (Na D-line) (dimensionless); xn = mol fraction of the nth substance listed; details: 101 kPa, Liquid
[2] = xn = mol fraction of the nth substance listed; details: 101 kPa, Liquid

COc1ccccc1 [anisole] + CCCCCCCCC
Details	mass density, 293.15 K [kg/m3]	mass density, 298.15 K [kg/m3]	mass density, 303.15 K [kg/m3]	refractive index, 293.15 K	refractive index, 298.15 K	refractive index, 303.15 K	viscosity, 293.15 K [mPa·s]	viscosity, 298.15 K [mPa·s]	viscosity, 303.15 K [mPa·s]
[1], x1 = 0.116	–	–	–	1.4119	1.4103	1.4074	–	–	–
[1], x1 = 0.218	–	–	–	1.4191	1.4173	1.4148	–	–	–
[1], x1 = 0.32	–	–	–	1.4276	1.4257	1.4234	–	–	–
[1], x1 = 0.413	–	–	–	1.4361	1.4343	1.432	–	–	–
[1], x1 = 0.4989	–	–	–	1.4448	1.443	1.4409	–	–	–
[1], x1 = 0.5907	–	–	–	1.4553	1.4534	1.4515	–	–	–
[1], x1 = 0.673	–	–	–	1.466	1.4639	1.4619	–	–	–
[1], x1 = 0.782	–	–	–	1.4811	1.4789	1.4771	–	–	–
[1], x1 = 0.8965	–	–	–	1.4984	1.4961	1.4944	–	–	–
[1], x1 = 1	–	–	–	1.5161	1.5141	1.5129	–	–	–
[2], x1 = 0.1003	737.55	730.48	726.35	–	–	–	0.7027	0.6663	0.6209
[2], x1 = 0.1991	752.72	748.56	744.37	–	–	–	0.6975	0.6588	0.6172
[2], x1 = 0.2995	776.9	768.71	764.41	–	–	–	0.7043	0.662	0.6139
[2], x1 = 0.3997	795.17	790.9	786.51	–	–	–	0.7127	0.6693	0.6315
[2], x1 = 0.4998	819.75	815.37	810.88	–	–	–	0.7381	0.6982	0.6485
[2], x1 = 0.5907	844.35	839.87	835.33	–	–	–	0.7718	0.7299	0.6758
[2], x1 = 0.6975	876.64	872.08	867.39	–	–	–	0.8298	0.7801	0.7158
[2], x1 = 0.8008	911.95	907.24	902.38	–	–	–	0.9049	0.8452	0.7771
[2], x1 = 0.898	949.42	944.51	939.7	–	–	–	0.9871	0.9159	0.8365
[2], x1 = 1	993.81	989.15	984.42	–	–	–	1.085	1.017	0.9285

COc1ccccc1 [anisole] + CCCCCCCCCCCC
Details	mass density, 293.15 K [kg/m3]	mass density, 298.15 K [kg/m3]	mass density, 303.15 K [kg/m3]	refractive index, 293.15 K	refractive index, 298.15 K	refractive index, 303.15 K	viscosity, 293.15 K [mPa·s]	viscosity, 298.15 K [mPa·s]	viscosity, 303.15 K [mPa·s]
[1], x1 = 0.106	–	–	–	1.4239	1.4199	1.4163	–	–	–
[1], x1 = 0.208	–	–	–	1.4289	1.4251	1.4213	–	–	–
[1], x1 = 0.29	–	–	–	1.4335	1.4298	1.4263	–	–	–
[1], x1 = 0.391	–	–	–	1.4406	1.4371	1.4339	–	–	–
[1], x1 = 0.4886	–	–	–	1.4488	1.4455	1.4426	–	–	–
[1], x1 = 0.607	–	–	–	1.4601	1.457	1.4545	–	–	–
[1], x1 = 0.7055	–	–	–	1.4707	1.4677	1.4654	–	–	–
[1], x1 = 0.7845	–	–	–	1.4809	1.4779	1.4756	–	–	–
[1], x1 = 0.88	–	–	–	1.4959	1.493	1.4908	–	–	–
[1], x1 = 1	–	–	–	1.5161	1.5141	1.5129	–	–	–
[2], x1 = 0.0992	760.26	756.57	752.87	–	–	–	1.413	1.312	1.197
[2], x1 = 0.2015	773.6	769.83	766.07	–	–	–	1.341	1.248	1.138
[2], x1 = 0.2969	787.75	783.97	780.1	–	–	–	1.272	1.181	1.081
[2], x1 = 0.4102	807.23	803.3	799.35	–	–	–	1.19	1.104	1.003
[2], x1 = 0.4898	822.92	818.98	814.93	–	–	–	1.138	1.052	0.9616
[2], x1 = 0.6099	850.24	846.1	841.96	–	–	–	1.074	0.9944	0.9147
[2], x1 = 0.702	875.28	871.03	866.78	–	–	–	1.039	0.9639	0.8922
[2], x1 = 0.8023	907.62	903.24	898.86	–	–	–	1.032	0.9569	0.8858
[2], x1 = 0.8976	944.56	940.04	935.51	–	–	–	1.046	0.9718	0.9132
[2], x1 = 1	993.81	989.15	984.42	–	–	–	1.085	1.017	0.9285

COc1ccccc1 [anisole] + CCCCCC
Details	mass density, 293.15 K [kg/m3]	mass density, 298.15 K [kg/m3]	mass density, 303.15 K [kg/m3]	refractive index, 293.15 K	refractive index, 298.15 K	refractive index, 303.15 K	viscosity, 293.15 K [mPa·s]	viscosity, 298.15 K [mPa·s]	viscosity, 303.15 K [mPa·s]
[1], x1 = 0.095	–	–	–	1.3873	1.3844	1.3819	–	–	–
[1], x1 = 0.193	–	–	–	1.399	1.3952	1.3931	–	–	–
[1], x1 = 0.288	–	–	–	1.4109	1.4081	1.4061	–	–	–
[1], x1 = 0.391	–	–	–	1.4243	1.4217	1.4197	–	–	–
[1], x1 = 0.5121	–	–	–	1.4408	1.4382	1.4365	–	–	–
[1], x1 = 0.5942	–	–	–	1.4525	1.45	1.4483	–	–	–
[1], x1 = 0.678	–	–	–	1.4651	1.4626	1.4609	–	–	–
[1], x1 = 0.779	–	–	–	1.4807	1.4783	1.4767	–	–	–
[1], x1 = 0.881	–	–	–	1.497	1.4946	1.4931	–	–	–
[1], x1 = 1	–	–	–	1.5161	1.5141	1.5129	–	–	–
[2], x1 = 0.0993	688.1	683.56	678.98	–	–	–	0.3336	0.3159	0.305
[2], x1 = 0.1959	716.85	712.32	707.69	–	–	–	0.3594	0.3451	0.3257
[2], x1 = 0.3008	749.04	744.42	739.83	–	–	–	0.3971	0.3776	0.3565
[2], x1 = 0.3998	780.42	775.78	771.15	–	–	–	0.4376	0.4157	0.396
[2], x1 = 0.5045	814.71	810.08	805.39	–	–	–	0.4958	0.4701	0.4451
[2], x1 = 0.5936	844.84	840.19	835.52	–	–	–	0.5596	0.529	0.5002
[2], x1 = 0.6834	876.15	871.52	866.76	–	–	–	0.6392	0.6028	0.5681
[2], x1 = 0.7909	914.94	910.25	905.45	–	–	–	0.756	0.71	0.6685
[2], x1 = 0.8975	954.65	949.92	945.31	–	–	–	0.9044	0.8483	0.7899
[2], x1 = 1	993.81	989.15	984.42	–	–	–	1.085	1.017	0.9285

COc1ccccc1 [anisole] + CCCCCCCCCC
Details	mass density, 293.15 K [kg/m3]	mass density, 298.15 K [kg/m3]	mass density, 303.15 K [kg/m3]	refractive index, 293.15 K	refractive index, 298.15 K	refractive index, 303.15 K	viscosity, 293.15 K [mPa·s]	viscosity, 298.15 K [mPa·s]	viscosity, 303.15 K [mPa·s]
[1], x1 = 0.1071	–	–	–	1.4198	1.4165	1.4131	–	–	–
[1], x1 = 0.1979	–	–	–	1.425	1.4218	1.4186	–	–	–
[1], x1 = 0.31	–	–	–	1.4328	1.4297	1.4269	–	–	–
[1], x1 = 0.409	–	–	–	1.4405	1.4374	1.4349	–	–	–
[1], x1 = 0.508	–	–	–	1.4495	1.4467	1.4443	–	–	–
[1], x1 = 0.6	–	–	–	1.4591	1.4563	1.4541	–	–	–
[1], x1 = 0.686	–	–	–	1.4694	1.4667	1.4645	–	–	–
[1], x1 = 0.789	–	–	–	1.4831	1.4803	1.4784	–	–	–
[1], x1 = 0.887	–	–	–	1.4973	1.4947	1.4927	–	–	–
[1], x1 = 1	–	–	–	1.5161	1.5141	1.5129	–	–	–
[2], x1 = 0.0846	742.22	738.35	734.48	–	–	–	0.8966	0.8362	0.7797
[2], x1 = 0.173	756.19	752.25	748.48	–	–	–	0.8837	0.8195	0.7679
[2], x1 = 0.2574	770.86	766.87	763.13	–	–	–	0.865	0.8019	0.7542
[2], x1 = 0.3675	792.19	788.11	784.45	–	–	–	0.8512	0.7887	0.7392
[2], x1 = 0.4546	811.1	806.89	803.36	–	–	–	0.8492	0.7883	0.7322
[2], x1 = 0.5661	838.25	833.93	830.59	–	–	–	0.8679	0.801	0.7387
[2], x1 = 0.6583	863.76	859.36	856.21	–	–	–	0.8896	0.8198	0.7585
[2], x1 = 0.7725	900.09	895.52	892.66	–	–	–	0.9343	0.8683	0.799
[2], x1 = 0.8798	940.35	935.67	933.11	–	–	–	0.9984	0.9296	0.8558
[2], x1 = 1	993.81	989.15	984.42	–	–	–	1.085	1.017	0.9285
